SMILES strings stand for the structures.

In this data set the test system is cell line U937. Put plainly: Optimization of glycan oxidation conditions, cell viability by trypan blue staining. Type of data set: cell-based. Here is the method:
Method 2: Conditions for biocompatible oxime ligation and ^89Zr-labeling of monocytes. Reactive aldehydes were generated on the cell surface of the monocytic cell line U937 through sialic acid oxidation with NaIO4. Oxidation conditions were optimized by varying NaIO4 concentration (0.1-10 mM), pH (4.6-7.4), temperature (4 or 37° C.), and incubation time (15 min to 2 h). Subsequently, cells were incubated with AOD (100-500 μM) at room temperature for up to 1 h in the presence of aniline, and cells were washed and resuspended in PBS. Next, AOD-conjugated (5-7×10^6) cells were radiolabeled with ^89Zr (37-74 MBq) at room temperature for 1h, then washed thrice to eliminate unlabeled ^89Zr, and the radiochemical yield was measured by TLC (FIG. 9A-9D). Cell viability was assessed at each step via trypan blue staining (FIG. 8).

With `[Na+].[O-][I+3]([O-])([O-])[O-]` [sodium periodate], the “viability of U937 cells after oxidation” value (1 mM, up to 1 hour) is “over 90%”. Besides, the “effect of glycan oxidation on cell viability, in words” value (tested temperature and reaction times) was “minimal effect on cell viability”.

These data come from patent US20250082797A1, “Methods for In Vivo Tracking of Cells” (Wisconsin Alumni Research Foundation, priority 2023, published 2025).
